# In patent US7153870B2, “Nicotinamide derivatives useful as PDE4 inhibitors” (Pfizer Inc., priority 2003, dated 2006):
# System: TNFα release from human peripheral blood mononuclear cells
# Assay: Inhibition of LPS-stimulated TNFα release from human peripheral blood mononuclear cells (TNFα screen)
# Assay type: cell-based
# Conditions: LPS-stimulated human PBMC, 18 hours incubation, TNFα in supernatant by ELISA
# Description: Venous blood is collected from healthy volunteers and the mononuclear cells purified by centrifugation through Histopaque (Ficoll) cushions. TNFα production from these cells is stimulated by addition of lipopolysaccharide. After 18 hours incubation in the presence of LPS, the cell supernatant is removed and the concentration of TNFα in the supernatant determined by ELISA. Addition of PDE4 inhibitors reduces the amount of TNFα produced. An IC50 is determined which is equal to the concentration of compound that gives 50% inhibition of TNFα production as compared to the LPS stimulated control wells.
row,Molecule,IC50 [pM]
1,"CSc1cccc(Oc2ncc(F)cc2C(=O)N[C@H]2CC[C@@H](NC(=O)c3cccc4cccnc34)CC2)c1 [Example 8, Syn-Quinoline-8-carboxylic acid(4-{[5-fluoro-2-(3-methylsulfanyl-phenoxy) -pyridine-3-carbonyl]-amino}-cyclohexyl)-amide]",250
2,"CSc1cccc(Oc2ncc(F)cc2C(=O)N[C@H]2CC[C@@H](NC(=O)c3cccc4cc(O)cnc34)CC2)c1 [Example 9, Syn-3-Hydroxy-quinoline-8-carboxylic acid(4-{[5-fluoro-2-(3-methylsulfanyl-phenoxy) -pyridine-3-carbonyl]-amino}-cyclohexyl)-amide]",150
3,"CSc1cccc(Oc2ncc(F)cc2C(=O)N[C@H]2CC[C@@H](NC(=O)c3nn(CCO)c4ccccc34)CC2)c1 [Example 10, Syn-1-(2-Hydroxy-ethyl)-1H-indazole-3-carboxylic acid(4-{[5-fluoro-2-(3-methylsulfanyl-phenoxy)-pyridine-3-carbonyl]-amino}-cyclohexyl)-amide]",300
4,"CSc1cccc(Oc2ncc(F)cc2C(=O)N[C@H]2CC[C@@H](NC(=O)c3cccn4ccnc34)CC2)c1 [Example 6, Syn-Imidazo[1,2-a]pyridine-8-carboxylic acid(4-{[5-fluoro-2-(3-methylsulfanyl-phenoxy) -pyridine-3-carbonyl]-amino}-cyclohexyl)-amide]",20
5,"CSc1cccc(Oc2ncc(F)cc2C(=O)N[C@H]2CC[C@@H](NC(=O)c3cc4ccccn4n3)CC2)c1 [Example 1, Syn-Pyrazolo[1,5-a]pyridine-2-carboxylic acid(4-{[5-fluoro-2-(3-methylsulfanyl-phenoxy) -pyridine-3-carbonyl]-amino}-cyclohexyl)-amide]",100
6,Syn-2-Methyl-3H-benzoimidazole-4-carboxylic acid(4-{[5-fluoro-2-(3-methylsulfanyl-phenoxy)-pyridine-3-carbonyl]-amino}-cyclohexyl)-amide [Example 5],40
7,Syn-1-Isopropyl-1H-benzoimidazole-4-carboxylic acid(4-{[5-fluoro-2-(3-methylsulfanyl-phenoxy)-pyridine-3-carbonyl]-amino}-cyclohexyl)-amide [Example 2],1000
8,"Syn-Imidazo[1,2-a]pyridine-2-carboxylic acid(4-{[5-fluoro-2-(3-methylsulfanyl -phenoxy)-pyridine-3-carbonyl]-amino}-cyclohexyl)-amide [Example 3]",100
9,Syn-1H-Indazole-3-carboxylic acid(4-{[5-fluoro-2-(3-methylsulfanyl-phenoxy) -pyridine-3-carbonyl]-amino}-cyclohexyl)-amide [Example 4],2000
10,"CSc1cccc(Oc2ncc(F)cc2C(=O)N[C@H]2CC[C@@H](NC(=O)c3cccc4nn[nH]c34)CC2)c1 [Example 7, Syn-3H-Benzotriazole-4-carboxylic acid(4-{[5-fluoro-2-(3-methylsulfanyl-Phenoxy) -pyridine-3-carbonyl]-amino}-cyclohexyl)-amide]",400
